{"source": "patent US10253371B2", "about": "“Method of treating leukemia based on gene expression of clock genes” (National Guard Health Affairs, priority 2016, dated 2019)", "origin": "cited, not measured here", "key": {"[1]": {"system": "Bcr-Abl tyrosine kinase", "details": "more potent than imatinib"}, "[2]": {"system": "Bcr-Abl expressing cells", "details": "more potent than imatinib"}}, "data": [{"smiles": "Cc1cn(-c2cc(NC(=O)c3ccc(C)c(Nc4nccc(-c5cccnc5)n4)c3)cc(C(F)(F)F)c2)cn1", "note": "[Nilotinib]", "values": [{"measurement": "potency relative to imatinib in inhibiting Bcr-Abl tyrosine kinase activity", "setting": "[1]", "result": "10-30 fold"}, {"measurement": "potency relative to imatinib in inhibiting proliferation of Bcr-Abl expressing cells", "setting": "[2]", "result": "10-30 fold"}]}]}
